“And” between values parts separate entries of the source, which are not always exact repeats. Equal entries are not always repeated.
Biological target: T1, MNK2 (Homo sapiens, UniProt Q9HBH9)
T1 construct: the open reading frames of human Mnk1 and Mnk2a were amplified from cDNA; made in house; host or cells: E. coli BL21
Assay: Mnk2a in vitro kinase assay (indirect fluorescence polarization)
Type: biochemical
Conditions: pre-activated GST-Mnk2a 2.5 nM, 20 μM ATP, 30 μM substrate peptide
Description: Inhibitory potency of compounds against Mnk1, Mnk2a and other kinases was assessed with assays based on a format known to those skilled in the art as the indirect (competitive) fluorescence polarization. The assay detection system comprises a small fluorophore-labeled phospho-peptide (termed ligand) bound to a phospho-specific antibody. The product generated by the kinase reaction competes with the ligand for antibody binding. Based on the larger molecular volume of the bound ligand, which results in a lower rotation rate in solution, its emitted light has a higher degree of polarization than the one from the free ligand.
Example 2a. Mnk1 and Mnk2a in vitro kinase assay
As a source of enzyme, human Mnk1 and human Mnk2a were expressed as GST fusion proteins in E. coli, purified to >80% homogeneity by glutathione affinity chromatography and activated in vitro with pre-activated ERK2. In brief, the open reading frames of human Mnk1 and Mnk2a were amplified from cDNA using the forward/reverse primer pairs
(utilized restriction sites underlined), respectively, and cloned into the BamHI and SalI sites of the vector pGEX-4T1 (Amersham, Sweden, cat. no. 27-4580-01). These constructs allow prokaryotic expression of Mnk1 or Mnk2a as fusion protein with a N-terminal glutathione S-transferase (GST) tag, referred to as GST-Mnk1 or GSTMnk2a. The following expression and purification procedure was identical for GSTMnk1 and GST-Mnk2a, referring in general to GST-Mnk, when not distinguishing between the two isoforms. Expression of GST-Mnk was in E. coli BL21 (Merck Biosciences, Germany, cat. no. 69449). Cells were grown in LB-Bouillon (Merck, Germany, cat. no. 1.10285) supplemented with 100 μg/ml ampicillin (Sigma, Germany, cat. no. A9518) at 37° C. When the culture had reached a density corresponding to an A600 of 0.8, an equal volume of ice cold LB/ampicillin was added, the culture transferred to 25° C. and induced for 4 h with 1 mM isopropyl thiogalactoside (IPTG, Roth, Germany, cat. no. 2316.4). Cells harvested by centrifugation were resuspended in 10 ml lysis buffer (50 mM tris(hydroxymethyl)aminomethane hydrochloride (Tris/HCl, Sigma, Germany, cat. no. T5941) pH 7.5, 300 mM sodium chloride (NaCl, Sigma, Germany, cat. no. S7653), 5% (w/v) glycerol (Sigma, Germany, cat. no. G5516), 3 mM DTT dithiotreitol (DTT, Sigma, Germany, cat. no. D9779)) per gram wet weight cell pellet. Lysates were prepared by disruption of cells with a sonifier and subsequent clearing by centrifugation at 38000 g for 45 min at 4° C.
The lysate was applied to a GSTPrep FF 16/10 column (Amersham, Sweden, cat. no. 17-5234-01) equilibrated with lysis buffer. Removal of unbound material was with 3 column volumes (CV) lysis buffer. Elution was with 2 CV of elution buffer (50 mM Tris/HCl pH 7.5, 300 mM NaCl, 5% (w/v) glycerol, 20 mM glutathione (Sigma, Germany, cat. no. G4251)). Peak fractions were pooled and the protein transferred into storage buffer (50 mM Tris/HCl pH 7.5, 200 mM NaCl, 0.1 mM ethylene glycolbis(2-aminoethylether)-N,N,N′,N′-tetraacetic acid (EGTA, Aldrich, Germany, cat. no. 23, 453-2), 1 mM DTT, 10% (w/v) glycerol, 0.5 M sucrose (Sigma, Germany, cat. no. S0389) by gel filtration on a PD10 desalting column (Amersham, Sweden, cat. no. 17-0851-01). Aliquots were shock frozen in liquid nitrogen and stored at −80° C.
Activation of Mnk1 and Mnk2a was at a concentration of 2.5 μM of either purified GST-Mnk1 or GST-Mnk2a by incubation with 150 nM pre-activated NHis-ERK2 (see ERK2 assay for preparation) and 50 μM adenosine triphosphate (ATP, Sigma, cat. no. A2699) in a buffer comprising 20 mM N-(2-hydroxyethyl)piperazine-N′-(2-ethanesulfonic acid) (HEPES, Fluka, Germany, cat. no 54459)/potassium hydroxide (KOH, Roth, Germany, cat. no 6751.1) pH 7.4, 10 mM magnesium chloride (MgCl2, Sigma, Germany, cat. no. M2670), 0.25 mM DTT, 0.05% (w/v) polyoxyethylene 20 stearylether (Brij 78, Sigma, Germany, cat. no. P4019) (HMDB buffer) for 45 min at 30° C. […]

T1 sequence (Q9HBH9 whole entry): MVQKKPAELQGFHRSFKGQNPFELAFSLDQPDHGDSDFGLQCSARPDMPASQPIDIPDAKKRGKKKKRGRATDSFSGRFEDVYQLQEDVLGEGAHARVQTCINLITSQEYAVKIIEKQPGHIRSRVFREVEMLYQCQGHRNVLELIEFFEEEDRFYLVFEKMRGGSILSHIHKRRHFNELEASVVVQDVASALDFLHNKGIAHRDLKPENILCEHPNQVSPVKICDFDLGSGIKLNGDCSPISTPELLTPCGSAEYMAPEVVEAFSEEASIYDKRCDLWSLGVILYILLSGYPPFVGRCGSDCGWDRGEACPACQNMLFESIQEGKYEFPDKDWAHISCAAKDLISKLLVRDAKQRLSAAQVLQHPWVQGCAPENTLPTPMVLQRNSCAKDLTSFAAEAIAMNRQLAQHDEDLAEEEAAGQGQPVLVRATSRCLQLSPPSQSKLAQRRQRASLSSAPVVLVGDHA

Molecule | IC50
4-(4-fluoro-2-(cis-3-hydroxycyclopentyloxy)phenylamino)-5-methylthieno[2,3-d]pyrimidine-6-carboxamide and 4-(4-fluoro-2-(trans-3-hydroxycyclopentyloxy)phenylamino)-5-methylthieno[2,3-d]pyrimidine-6-carboxamide [Example 242] | 0.005 µM and 0.004 µM
Cc1c(C(=O)NC2CC2N)sc2ncnc(Nc3ccc(F)cc3OC3CCCC(O)C3)c12 (mixture of isomers) [Example 59] | 0.034 µM
Cc1c(C(=O)NCC2CNCCO2)sc2ncnc(Nc3ccc(F)cc3OC3CCCC(O)C3)c12 (mixture of isomers) [Example 67] | 0.018 µM
Cc1c(C(=O)NCC2COCCN2)sc2ncnc(Nc3ccc(F)cc3OC3CCCC(O)C3)c12 (mixture of isomers) [Example 68] | 0.031 µM
Cc1c(C(=O)NCC(C)O)sc2ncnc(Nc3ccc(F)cc3OC3CCCC(O)C3)c12 (mixture of isomers) [Example 73] | 0.043 µM
Cc1c(C(N)=O)sc2ncnc(Nc3ccc(F)cc3O[C@@H]3CCCC[C@H]3N(C)S(C)(=O)=O)c12 (racemic) [Example 13, Racemic 4-(4-Fluoro-2-(trans-2-(N-methylmethylsulfonamido)cyclohexyloxy)phenylamino)-5-methylthieno[2,3-d]pyrimidine-6-carboxamide] | 0.44 µM
CC(=O)N(C)[C@@H]1CCCC[C@H]1Oc1cc(F)ccc1Nc1ncnc2sc(C(N)=O)c(C)c12 (racemic) [Example 14, Racemic 4-(4-fluoro-2-(trans-2-(N-methylacetamido)cyclohexyloxy)phenylamino)-5-methylthieno[2,3-d]pyrimidine-6-carboxamide] | 1.6 µM
CO[C@@H]1CCCC[C@H]1Oc1cc(F)ccc1Nc1ncnc2sc(C(N)=O)c(C)c12 (racemic) [Example 50, Racemic 4-[4-Fluoro-2-(trans-2-methoxy-cyclohexyloxy)-phenylamino]-5-methyl-thieno[2,3-d]pyrimidine-6-carboxylic acid amide] | 0.01 µM
CO[C@H]1CCCC[C@H]1Oc1cc(F)ccc1Nc1ncnc2sc(C(N)=O)c(C)c12 (racemic) [Example 55, Racemic 4-[4-Fluoro-2-(cis-2-methoxy-cyclohexyloxy)-phenylamino]-5-methyl-thieno[2,3-d]pyrimidine-6-carboxylic acid amide] | 0.059 µM
Cc1c(C(N)=O)sc2ncnc(Nc3ccc(F)cc3O[C@@H]3CCCC[C@@H]3O)c12 (racemic) [Example 56, Racemic 4-[4-Fluoro-2-((cis)-2-hydroxy-cyclohexyloxy)-phenylamino]-5-methyl-thieno[2,3-d]pyrimidine-6-carboxylic acid amide] | 0.033 µM
Cc1c(C(N)=O)sc2ncnc(Nc3ccc(F)cc3O[C@@H]3CCC[C@H](O)C3)c12 (racemic) [Example 57, Racemic 4-[4-Fluoro-2-((cis)-3-hydroxy-cyclohexyloxy)-phenylamino]-5-methyl-thieno[2,3-d]pyrimidine-6-carboxylic acid amide] | 0.007 µM
Cc1c(C(N)=O)sc2ncnc(Nc3ccc(F)cc3O[C@@H]3CCC[C@@H](O)C3)c12 (racemic) [Example 58, Racemic 4-[4-Fluoro-2-((trans)-3-hydroxy-cyclohexyloxy)-phenylamino]-5-methyl-thieno[2,3-d]pyrimidine-6-carboxylic acid amide] | 0.006 µM
Cc1c(C(=O)NCC#CCN)sc2ncnc(Nc3ccc(F)cc3O[C@@H]3CCC[C@@H](O)C3)c12 (racemic) [Example 60] | 0.014 µM
Cc1c(C(=O)NCCCCO)sc2ncnc(Nc3ccc(F)cc3O[C@@H]3CCC[C@@H](O)C3)c12 (racemic) [Example 61] | 0.026 µM
Cc1c(C(=O)NCc2cnco2)sc2ncnc(Nc3ccc(F)cc3O[C@@H]3CCC[C@@H](O)C3)c12 (racemic) [Example 62] | 0.017 µM
Cc1c(C(=O)NCC#N)sc2ncnc(Nc3ccc(F)cc3O[C@@H]3CCC[C@@H](O)C3)c12 (racemic) [Example 63] | 0.014 µM
CNC(=O)CNC(=O)c1sc2ncnc(Nc3ccc(F)cc3O[C@@H]3CCC[C@@H](O)C3)c2c1C (racemic) [Example 64] | 0.021 µM
Cc1c(C(=O)NCC#CCN(C)C)sc2ncnc(Nc3ccc(F)cc3O[C@@H]3CCC[C@@H](O)C3)c12 (racemic) [Example 65] | 0.016 µM
Cc1c(C(=O)NCCCN2CCOCC2)sc2ncnc(Nc3ccc(F)cc3O[C@@H]3CCC[C@@H](O)C3)c12 (racemic) [Example 66] | 0.026 µM
Cc1c(C(=O)N[C@H]2CC[C@H](O)CC2)sc2ncnc(Nc3ccc(F)cc3O[C@@H]3CCC[C@@H](O)C3)c12 (racemic) [Example 69] | 0.034 µM
Cc1c(C(=O)NCCN2CCCCC2)sc2ncnc(Nc3ccc(F)cc3O[C@@H]3CCC[C@@H](O)C3)c12 (racemic) [Example 72] | 0.023 µM
Cc1c(C(=O)NCCCO)sc2ncnc(Nc3ccc(F)cc3O[C@@H]3CCC[C@@H](O)C3)c12 (racemic) [Example 74] | 0.022 µM
Cc1c(C(=O)NCc2cn(C)cn2)sc2ncnc(Nc3ccc(F)cc3O[C@@H]3CCC[C@@H](O)C3)c12 (racemic) [Example 76] | 0.013 µM

Results, then the molecule that gave them:

IC50 | Molecule
0.053 µM | COC1CCCC(Oc2cc(F)ccc2Nc2ncnc3sc(C(=O)NCC4CNCCO4)c(C)c23)C1 (mixture of isomers) [Example 83]
0.017 µM | COC1CCCC(Oc2cc(F)ccc2Nc2ncnc3sc(C(=O)NCC4CNCCO4)c(C)c23)C1 (mixture of isomers) [Example 98]
0.036 µM | COC1CCCC(Oc2ncccc2Nc2ncnc3sc(C(=O)NC4CC4N)c(C)c23)C1 (mixture of isomers) [Example 111]
0.011 µM | COC1CCCC(Oc2ncccc2Nc2ncnc3sc(C(=O)NCC4CNCCO4)c(C)c23)C1 (mixture of isomers) [Example 119]
0.096 µM | COC1CCCC(Oc2ncccc2Nc2ncnc3sc(C(=O)NC4CC4N)c(C)c23)C1 (mixture of isomers) [Example 132]
0.089 µM | COC1CCCC(Oc2ncccc2Nc2ncnc3sc(C(=O)NCC4COCCN4)c(C)c23)C1 (mixture of isomers) [Example 141]
0.105 µM | COC1CCCC(Oc2ncccc2Nc2ncnc3sc(C(=O)NCC(C)O)c(C)c23)C1 (mixture of isomers) [Example 146]
0.025 µM | CCNC(=O)c1sc2ncnc(Nc3ccc(F)cc3O[C@@H]3CCC[C@@H](O)C3)c2c1C (racemic) [Example 78]
0.015 µM | CO[C@@H]1CCC[C@@H](Oc2cc(F)ccc2Nc2ncnc3sc(C(N)=O)c(C)c23)C1 (racemic) [Example 79, Racemic 4-[4-Fluoro-2-((trans)-3-methoxy-cyclohexyloxy)-phenylamino]-5-methyl-thieno[2,3-d]pyrimidine-6-carboxylic acid amide]
0.044 µM | CO[C@@H]1CCC[C@@H](Oc2cc(F)ccc2Nc2ncnc3sc(C(=O)NCc4cnco4)c(C)c23)C1 (racemic) [Example 82]
0.061 µM | CO[C@@H]1CCC[C@@H](Oc2cc(F)ccc2Nc2ncnc3sc(C(=O)NCCCN(C)C)c(C)c23)C1 (racemic) [Example 88]

— patent publication US8754079B2, “Cycloalkyl containing thienopyrimidines for pharmaceutical compositions” (Boehringer Ingelheim International GmbH, priority 2010, dated 2014)
